# Assay results reported in article PMC10154249, “Unique progerin C-terminal peptide ameliorates Hutchinson–Gilford progeria syndrome phenotype by rescuing BUBR1” (Nature Aging, 2023).
# Experiments:
# Assay type in all cases: cell-based
# PTBP1–BUBR1 mRNA 3′-UTR = assay: RIP assay of PTBP1 and BUBR1 mRNA 3′-UTR in HEK-293T cells; details: for PTBP1 enrichment on BUBR1-3'UTR (2-ΔΔCt): Fig. 4n, PTBP1+progerin+UPCP, P=0.0491 vs PTBP1+progerin
# Method: RIP and RNA pulldown assays were performed as previously described. The RIP experiment was carried out using the EZ-Magna RIP Kit (Millipore, catalog no. 17-701). The coprecipitated RNAs were extracted through Trizol reagent and detected by RT-PCR. The primer sequences for PCR, synthesized by Comate Bioscience, were as follows:
# BUBR1-3′UTR_fwd (5′-[…]-3′) and BUBR1-3′UTR_rev (5′- […]-3′).
# [1] = tested on: progerin–BUBR1 interaction; assay: CoIP of progerin and BUBR1 in HEK-293T cells; details: HEK-293T, Flag-progerin, UPCP 6 μM, 12 μM and 18 μM
# Method: Detailed descriptions of CoIP were described previously[55],[56]. Cells were harvested and washed three times in cold PBS, then lysed in CoIP buffer (25 mM Tris-HCl (pH 7.5), 150 mM KCl, 5 mM EDTA, and 0.5% NP-40) plus protease inhibitor cocktail tablet (Roche). Incubate on ice and shock lysates on the vortex shaker 15 times for 30 s each. Microcentrifuge in 12,000g for 15 min at 4 °C, collect the supernatant, and incubate with 3 μg primary antibodies with gentle shaking overnight at 4 °C, followed by adding 20–40 μl Pure Proteome Protein A/G Mix Magnetic Beads (Millipore, catalog no. […]02) for 3 h. Wash the beads three times with 1 ml CoIP buffer for 8 min each, resuspend in 50 μl 1× loading buffer, and incubate at 100 °C for 8 min. Throw beads away and analyze by immunoblotting.
# [2] = tested on: BUBR1 kinetochore localization in H1299 cells; assay: Immunofluorescence, abnormal localization of BUBR1 in H1299 cells; details: for Relative percentage of the number of abnormal localization cells of BUBR1: Fig. 3h, H1299, progerin+UPCP, P=0.0202 vs progerin
# Method: Immunofluorescence was performed as described previously. Cells were plated on cover slips in 12-well plates, left overnight before the treatment. Cells were fixed in 1% formaldehyde in culture medium for 10 min at 37 °C and permeabilized with 0.2% Triton X-100 in PBS for 10 min at room temperature. Cells were washed twice in PBS and blocked for 1 h with 5% BSA in PBS and then incubated with primary antibodies at 4 °C overnight, washed three times in PBS and incubated with secondary antibodies for 1 h at room temperature. Cell nuclei were counterstained with a 500 nM concentration of 4,6-diamidino-2-phenylindole (DAPI) (Sigma). Images were acquired by a fluorescence microscope (OLYMPUS FV-1000, Carl Zeiss LSM880 or Leica DMi8) and analyzed with software NIS-Elements AR v.5.0.1 (Nikon), FLUOVIEW v.4.2b (OLYMPUS), ZEN v.2.3 SP1 (Carl Zeiss) and Leica Application Suite X v.3.6.0.24 (Leica). Cells were quantified by investigators who were blinded to the identity of the analyzed cell.
substance,measurement,setting,value
"H-YGRKKRRQRRRYNLRSRTVLCGTCGQPADKASASGSGAQSPQNCSIM-OH (cysteines drawn unpaired) [UPCP, unique progerin C-terminal peptide]",PTBP1 enrichment on BUBR1-3'UTR (2-ΔΔCt),PTBP1–BUBR1 mRNA 3′-UTR; replicate 1,9.032
same,PTBP1 enrichment on BUBR1-3'UTR (2-ΔΔCt),PTBP1–BUBR1 mRNA 3′-UTR; replicate 2,10.1759
same,PTBP1 enrichment on BUBR1-3'UTR (2-ΔΔCt),PTBP1–BUBR1 mRNA 3′-UTR; replicate 3,11.8972
same,binding of PTBP1 to BUBR1 mRNA 3ʹ-UTR,"PTBP1–BUBR1 mRNA 3′-UTR; RIP and RNA pulldown, HEK-293T with or without UPCP",promoted PTBP1 to bind
same,interaction between progerin and BUBR1,[1],interfered with the interaction between progerin and BUBR1
same,Relative percentage of the number of abnormal localization cells of BUBR1,[2]; replicate 1,25%
same,Relative percentage of the number of abnormal localization cells of BUBR1,[2]; replicate 2,18%
same,Relative percentage of the number of abnormal localization cells of BUBR1,[2]; replicate 3,27%
same,BUBR1 localization to the kinetochore,"[2]; H1299 cells, immunofluorescence",correctly localized BUBR1 to the kinetochore
